Reference: patent publication US20080220103A1, “METHOD FOR TREATING/CONTROLLING/KILLING FUNGI AND BACTERIA ON LIVING ANIMALS” (priority 2005, published 2008)
In brackets after ≈: the same amount, converted by molar mass. Several values for one entry are separate records, joined by “and”; a condition that tells them apart may be missing. Equal values may be shown once. Read-outs that look alike come from different tables or passages of the source.

Tests used:
T. rubrum [1] = assay: MIC, modified CLSI M38A broth dilution; format: cell-based, Trichophyton rubrum
Description: (§1) Minimum Inhibitory Concentration (MIC): Minimum inhibitory concentrations of synthetic and semisynthetic and natural products against dermatophytes were determined using a modification of the Clinical Laboratory Standards Institute (CLSI, formerly National Committee of Clinical Laboratory Standards, NCCLS) M38A standard method for dermatophytes, while MIC of these agents against Candida species were determined using the CLSI M27-A2 methodology. The method used to determine the MIC against bacteria was based on the CLSI document M7-A7.
(§2) For dermatophytes, serial dilutions of terbinafine, tolnaftate were prepared in a range of 0.004-2 μg/ml, while for miconazole concentrations ranged between 0.015-8 μg/ml. Finally, for essential oils, the concentrations tested were between 0.03-16 μg/ml. The only exception was tea tree oil where dilutions were prepared in a range of 0.0078-4 μg/ml. The MIC was read at 4 days post inoculation and defined as the lowest concentration of an agent to inhibit 80% of fungal growth as compared to the growth control (Table 2).

[2] = tested on: All bacteria (Staphylococcus species); assay: MIC, CLSI M7-A7, pooled bacteria; format: cell-based, S. aureus, S. epidermidis
Description: as §1
(§3) For bacterial species, the medium used to evaluate the antibacterial activity of agents and essential oils was Mueller-Hinton (Oxoid Ltd., Basingstoke, Hampshire, England). Serial dilutions of miconazole, terbinafine, and tolnaftate were prepared in a range of 0.125-64 μg/ml and serial dilutions of tea tree oil were prepared in a range of 0.0078-4 μg/ml, while those for the rest of the essential oils were prepared in a range 0.031-16 μg/ml.
(§4) In the following Tables, MIC50 and MIC90 are defined as the minimal concentrations of a compound that can inhibit 50% and 90% of the tested organisms, respectively.

S. epidermidis = assay: MIC, CLSI M7-A7, Mueller-Hinton; format: cell-based; settings: for MIC: read-out: MIC
Description: as §1, §3

All dermatophytes [3] = assay: MIC, modified CLSI M38A, pooled dermatophytes; format: cell-based, E. floccosum, T. rubrum, T. mentagrophytes
Description: as §1, §2, §4

T. rubrum [4] = assay: Minimum fungicidal concentration (Canton et al.); format: cell-based, Trichophyton rubrum; settings: for MFC: Trichophyton rubrum
Description: (§5) Minimum fungicidal concentration (MFC): The minimum fungicidal concentrations of various agents were determined using the technique described by Canton et al. (Antimicrob Agents Chemother. 2004 8:2477-82). In that method, fungal conidia were collected following growth on potato dextrose agar (PDA) plates and were used to inoculate 96-well plates containing different concentrations of agents. Following incubation at 35° C. for 4 days (for dermatophytes) or 24 hours (for yeast), wells showing no visible growth were cultured to determine the MFC (defined as the lowest concentration of a given agent that kills>99.999% of fungal conidia or spores). The MFC value represents the level of the agent at which spores or conidia were killed.

T. mentagrophytes [5] = assay: Minimum fungicidal concentration (Canton et al.); format: cell-based, Trichophyton mentagrophytes; settings: for MFC: Trichophyton mentagrophytes
Description: as §5

E. floccosum [6] = assay: MIC, modified CLSI M38A broth dilution; format: cell-based, Epidermophyton floccosum
Description: as §1, §2

C. albicans = assay: MIC, CLSI M27-A2; format: cell-based, Candida albicans
Description: as §1
The remaining essential oils were prepared in a dilution range of 0.03-16 μg/ml. For Candida the MIC was read at 24 hours and defined as the lowest concentration to inhibit 50% of fungal growth as compared to the growth control (Table 4).

All dermatophytes [7] = assay: Minimum fungicidal concentration, pooled dermatophytes; format: cell-based, E. floccosum, T. rubrum, T. mentagrophytes; settings: All dermatophytes, n = 18
Description: as §5, §4

T. mentagrophytes [8] = assay: MIC, modified CLSI M38A broth dilution; format: cell-based, Trichophyton mentagrophytes
Description: as §1, §2

E. floccosum [9] = assay: Minimum fungicidal concentration (Canton et al.); format: cell-based, Epidermophyton floccosum; settings: for MFC: Epidermophyton floccosum
Description: as §5

[10] = Trichophyton rubrum, T. rubrum, n = 6
[11] = Staphylococcus epidermidis, S. epidermidis, n = 6
[12] = Epidermophyton floccosum, E. floccosum, n = 6
[13] = Candida albicans, C. albicans, n = 6
[14] = Trichophyton mentagrophytes, T. mentagrophytes, n = 6

SMILES: CN(C/C=C/C#CC(C)(C)C)Cc1cccc2ccccc12 [Terbinafine, terbinafine]
- MIC Range (T. rubrum [1]; T. rubrum, n = 6): 0.008 to 0.015 µg/mL
- MIC (T. rubrum [1]; Trichophyton rubrum, T. rubrum strain 1967): 0.015 µg/mL (≈ 0.0515 µM)
- MIC (T. rubrum [1]; Trichophyton rubrum, T. rubrum strain 2098): 0.015 µg/mL (≈ 0.0515 µM)
- MIC (T. rubrum [1]; Trichophyton rubrum, T. rubrum strain 2246): 0.008 µg/mL (≈ 0.0275 µM)
- MIC (T. rubrum [1]; Trichophyton rubrum, T. rubrum strain 8063): 0.015 µg/mL (≈ 0.0515 µM)
- MIC (T. rubrum [1]; Trichophyton rubrum, T. rubrum strain 8071): 0.015 µg/mL (≈ 0.0515 µM)
- MIC (T. rubrum [1]; Trichophyton rubrum, T. rubrum strain 8092): 0.015 µg/mL (≈ 0.0515 µM)
- MIC50 (T. rubrum [1]; [10]): 0.015 µg/mL (≈ 0.0515 µM)
- MIC90 (T. rubrum [1]; [10]): 0.015 µg/mL (≈ 0.0515 µM)
- MIC50 ([2]; Staphylococcus, n = 12): > 64 µg/mL
- MIC90 ([2]; Staphylococcus, n = 12): > 64 µg/mL
- MIC Range ([2]; n = 12): >64 µg/mL
- MIC Range ([2]; n = 12, listed as TERBINAFINE): >64 µg/mL
- MIC Range ([2]; n = 12, listed as terbinafine): > 64 µg/mL
- MIC Range (S. epidermidis; S. epidermidis, n = 6): >64 µg/mL
- MIC (S. epidermidis; Staphylococcus epidermidis, S. epidermidis strain 8472): > 64 µg/mL
- MIC (S. epidermidis; Staphylococcus epidermidis, S. epidermidis strain 8473): > 64 µg/mL
- MIC (S. epidermidis; Staphylococcus epidermidis, S. epidermidis strain 8474): > 64 µg/mL
- MIC (S. epidermidis; Staphylococcus epidermidis, S. epidermidis strain 8475): > 64 µg/mL
- MIC (S. epidermidis; Staphylococcus epidermidis, S. epidermidis strain 8476): > 64 µg/mL
- MIC (S. epidermidis; Staphylococcus epidermidis, S. epidermidis strain 8477): > 64 µg/mL
- MIC50 (S. epidermidis; [11]): > 64 µg/mL
- MIC90 (S. epidermidis; [11]): > 64 µg/mL
- MIC50 (All dermatophytes [3]; n = 18): 0.03 µg/mL (≈ 0.103 µM)
- MIC90 (All dermatophytes [3]; n = 18): 0.06 µg/mL (≈ 0.206 µM)
- MIC Range (All dermatophytes [3]; n = 18): 0.015 µg/mL and 0.008 to 0.015 µg/mL
- MIC Range (All dermatophytes [3]; n = 18, listed as terbinafine): 0.008 to 0.06 µg/mL
- MFC range (row MIC Range) (T. rubrum [4]; T. rubrum, n = 6): 0.03 to 0.125 µg/mL
- MFC (T. rubrum [4]; T. rubrum strain 1967, read-out: MFC): 0.125 µg/mL (≈ 0.429 µM)
- MFC (T. rubrum [4]; T. rubrum strain 2098, read-out: MFC): 0.06 µg/mL (≈ 0.206 µM)
- MFC (T. rubrum [4]; T. rubrum strain 2246, read-out: MFC): 0.06 µg/mL (≈ 0.206 µM)
- MFC (T. rubrum [4]; T. rubrum strain 8063, read-out: MFC): 0.06 µg/mL (≈ 0.206 µM)
- MFC (T. rubrum [4]; T. rubrum strain 8071, read-out: MFC): 0.06 µg/mL (≈ 0.206 µM)
- MFC (T. rubrum [4]; T. rubrum strain 8092, read-out: MFC): 0.03 µg/mL (≈ 0.103 µM)
- MFC (T. rubrum [4]; T. rubrum, n = 6, read-out: MFC, row MIC50): 0.06 µg/mL (≈ 0.206 µM)
- MFC (T. rubrum [4]; T. rubrum, n = 6, read-out: MFC, row MIC90): 0.125 µg/mL (≈ 0.429 µM)
- MFC range (row MIC Range) (T. mentagrophytes [5]; T. mentagrophytes, n = 6): 0.06 to 0.125 µg/mL
- MFC (T. mentagrophytes [5]; T. mentagrophytes strain 2124, read-out: MFC): 0.125 µg/mL (≈ 0.429 µM)
- MFC (T. mentagrophytes [5]; T. mentagrophytes strain 2125, read-out: MFC): 0.125 µg/mL (≈ 0.429 µM)
- MFC (T. mentagrophytes [5]; T. mentagrophytes strain 2127, read-out: MFC): 0.06 µg/mL (≈ 0.206 µM)
- MFC (T. mentagrophytes [5]; T. mentagrophytes strain 2128, read-out: MFC): 0.125 µg/mL (≈ 0.429 µM)
- MFC (T. mentagrophytes [5]; T. mentagrophytes, n = 6, read-out: MFC, row MIC50): 0.125 µg/mL (≈ 0.429 µM)
- MFC (T. mentagrophytes [5]; T. mentagrophytes, n = 6, read-out: MFC, row MIC90): 0.125 µg/mL (≈ 0.429 µM)
- MIC Range (E. floccosum [6]; E. floccosum, n = 6): 0.03 to 0.06 µg/mL
- MIC (E. floccosum [6]; Epidermophyton floccosum, E. floccosum strain 1666): 0.06 µg/mL (≈ 0.206 µM)
- MIC (E. floccosum [6]; Epidermophyton floccosum, E. floccosum strain 1798): 0.03 µg/mL (≈ 0.103 µM)
- MIC (E. floccosum [6]; Epidermophyton floccosum, E. floccosum strain 1925): 0.03 µg/mL (≈ 0.103 µM)
- MIC (E. floccosum [6]; Epidermophyton floccosum, E. floccosum strain 1926): 0.06 µg/mL (≈ 0.206 µM)
- MIC (E. floccosum [6]; Epidermophyton floccosum, E. floccosum strain 1961): 0.06 µg/mL (≈ 0.206 µM)
- MIC (E. floccosum [6]; Epidermophyton floccosum, E. floccosum strain 2165): 0.06 µg/mL (≈ 0.206 µM)
- MIC50 (E. floccosum [6]; [12]): 0.06 µg/mL (≈ 0.206 µM)
- MIC90 (E. floccosum [6]; [12]): 0.06 µg/mL (≈ 0.206 µM)
- MIC (C. albicans; C. albicans strain 8280 (multi-resistant)): >64 µg/mL
- MIC (C. albicans; Candida albicans, 24 h, C. albicans strain 1740, 50% inhibition, 24 hours, read-out: MIC): 1 µg/mL (≈ 3.43 µM)
- MIC (C. albicans; Candida albicans, C. albicans strain 2108, read-out: MIC): 0.5 µg/mL (≈ 1.72 µM)
- MIC (C. albicans; Candida albicans, C. albicans strain 2153, read-out: MIC): 0.5 µg/mL (≈ 1.72 µM)
- MIC (C. albicans; Candida albicans, C. albicans strain 8280 (multi-resistant), read-out: MIC): ≥ 64 µg/mL
- MIC (C. albicans; Candida albicans, C. albicans strain 8283, read-out: MIC): 0.5 µg/mL (≈ 1.72 µM)
- MIC (C. albicans; Candida albicans, C. albicans strain 8364, read-out: MIC): 2 µg/mL (≈ 6.86 µM)
- MIC (C. albicans; Candida albicans, C. albicans, 5 strains, read-out: MIC values): 0.5 to 2 µg/mL (≈ 1.72 to 6.86 µM)
- MIC50 (C. albicans; [13]): 0.5 µg/mL (≈ 1.72 µM)
- MIC90 (C. albicans; [13]): 2 µg/mL (≈ 6.86 µM)
- MFC Range (All dermatophytes [7]): 0.03 to 0.125 µg/mL
- MFC (All dermatophytes [7]; read-out: MFC, row MIC50): 0.06 µg/mL (≈ 0.206 µM)
- MFC (All dermatophytes [7]; read-out: MFC, row MIC90): 0.125 µg/mL (≈ 0.429 µM)
- MIC Range (T. mentagrophytes [8]; T. mentagrophytes, n = 6): 0.004 to 0.03 µg/mL
- MIC (T. mentagrophytes [8]; Trichophyton mentagrophytes, T. mentagrophytes strain 1720): 0.004 µg/mL (≈ 0.0137 µM)
- MIC (T. mentagrophytes [8]; Trichophyton mentagrophytes, T. mentagrophytes strain 2124): 0.03 µg/mL (≈ 0.103 µM)
- MIC (T. mentagrophytes [8]; Trichophyton mentagrophytes, T. mentagrophytes strain 2125): 0.03 µg/mL (≈ 0.103 µM)
- MIC (T. mentagrophytes [8]; Trichophyton mentagrophytes, T. mentagrophytes strain 2126): 0.004 µg/mL (≈ 0.0137 µM)
- MIC (T. mentagrophytes [8]; Trichophyton mentagrophytes, T. mentagrophytes strain 2127): 0.03 µg/mL (≈ 0.103 µM)
- MIC (T. mentagrophytes [8]; Trichophyton mentagrophytes, T. mentagrophytes strain 2128): 0.03 µg/mL (≈ 0.103 µM)
- MIC50 (T. mentagrophytes [8]; [14]): 0.03 µg/mL (≈ 0.103 µM)
- MIC90 (T. mentagrophytes [8]; [14]): 0.03 µg/mL (≈ 0.103 µM)
- MFC range (row MIC Range) (E. floccosum [9]; E. floccosum, n = 6): 0.03 to 0.125 µg/mL
- MFC (E. floccosum [9]; E. floccosum strain 1666, read-out: MFC): 0.06 µg/mL (≈ 0.206 µM)
- MFC (E. floccosum [9]; E. floccosum strain 1798, read-out: MFC): 0.03 µg/mL (≈ 0.103 µM)
- MFC (E. floccosum [9]; E. floccosum strain 1925, read-out: MFC): 0.06 µg/mL (≈ 0.206 µM)
- MFC (E. floccosum [9]; E. floccosum strain 1926, read-out: MFC): 0.06 µg/mL (≈ 0.206 µM)
- MFC (E. floccosum [9]; E. floccosum strain 1961, read-out: MFC): 0.125 µg/mL (≈ 0.429 µM)
- MFC (E. floccosum [9]; E. floccosum strain 2165, read-out: MFC): 0.125 µg/mL (≈ 0.429 µM)
- MFC (E. floccosum [9]; E. floccosum, n = 6, read-out: MFC, row MIC50): 0.06 µg/mL (≈ 0.206 µM)
- MFC (E. floccosum [9]; E. floccosum, n = 6, read-out: MFC, row MIC90): 0.125 µg/mL (≈ 0.429 µM)
